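96-well plates; 48 h exposure; 5 concentrations. Endpoints by linear interpolation between flanking doses. Not reached: highest tested concentration assigned. Abbreviation: GI50, concentration required for 50% inhibition of growth. TGI: total growth inhibition.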
What was measured:
Assay in all cases: NCI tumour cell line growth inhibition, 48 h
786-0 renal = test system: 786-0 renal
A498 renal = test system: A498 renal
A549 NSCLC = test system: A549 NSCLC
ACHN renal = test system: ACHN renal
BT-549 breast = test system: BT-549 breast
CAKI-1 renal = test system: CAKI-1 renal
CCRF-CEM leukemia = test system: CCRF-CEM leukemia
COLO 205 colon = test system: COLO 205 colon
DU-145 prostate = test system: DU-145 prostate
EKVX NSCLC = test system: EKVX NSCLC
HCC-2998 colon = test system: HCC-2998 colon
HCT-116 colon = test system: HCT-116 colon
HCT-15 colon = test system: HCT-15 colon
HL-60(TB) leukemia = test system: HL-60(TB) leukemia
HOP-62 NSCLC = test system: HOP-62 NSCLC
HOP-92 NSCLC = test system: HOP-92 NSCLC
HS 578T breast = test system: HS 578T breast
HT29 colon = test system: HT29 colon
IGROV1 ovarian = test system: IGROV1 ovarian
K-562 leukemia = test system: K-562 leukemia
KM12 colon = test system: KM12 colon
LOX IMVI melanoma = test system: LOX IMVI melanoma
M14 melanoma = test system: M14 melanoma
MALME-3M melanoma = test system: MALME-3M melanoma
MCF7 breast = test system: MCF7 breast
MDA-MB-231 breast = test system: MDA-MB-231 breast
MDA-MB-435 = test system: MDA-MB-435
MOLT-4 leukemia = test system: MOLT-4 leukemia
NCI-H226 lung = test system: NCI-H226 lung
NCI-H23 lung = test system: NCI-H23 lung
NCI-H460 lung = test system: NCI-H460 lung
NCI-H522 lung = test system: NCI-H522 lung
NCI/ADR-RES ovarian = test system: NCI/ADR-RES ovarian
OVCAR-3 ovarian = test system: OVCAR-3 ovarian
OVCAR-4 ovarian = test system: OVCAR-4 ovarian
OVCAR-5 ovarian = test system: OVCAR-5 ovarian
OVCAR-8 ovarian = test system: OVCAR-8 ovarian
PC-3 prostate = test system: PC-3 prostate
RPMI-8226 leukemia = test system: RPMI-8226 leukemia
RXF 393 renal = test system: RXF 393 renal
SF-268 CNS = test system: SF-268 CNS
SF-295 CNS = test system: SF-295 CNS
SF-539 CNS = test system: SF-539 CNS
SK-MEL-2 melanoma = test system: SK-MEL-2 melanoma
SK-MEL-28 melanoma = test system: SK-MEL-28 melanoma
SK-MEL-5 melanoma = test system: SK-MEL-5 melanoma
SK-OV-3 ovarian = test system: SK-OV-3 ovarian
SN12C renal = test system: SN12C renal
SNB-19 CNS = test system: SNB-19 CNS
SNB-75 CNS = test system: SNB-75 CNS
SR leukemia = test system: SR leukemia
SW-620 colon = test system: SW-620 colon
T-47D breast = test system: T-47D breast
TK-10 renal = test system: TK-10 renal
U251 CNS = test system: U251 CNS
UACC-257 melanoma = test system: UACC-257 melanoma
UACC-62 melanoma = test system: UACC-62 melanoma
UO-31 renal = test system: UO-31 renal

Compound `CN(C)CCNc1ccc2ncc(C#Cc3cncc(C(=O)Nc4ccc(CN5CCN(C)CC5)c(C(F)(F)F)c4)c3)n2n1` has a GI50 (786-0 renal) of 1040 nM, a TGI (786-0 renal) of 2460 nM and a GI50 (A498 renal) of 3100 nM. For the same compound, the TGI (A498 renal) was 9700 nM, the GI50 (A549 NSCLC) was 936 nM and the TGI (A549 NSCLC) was 5460 nM. The GI50 (ACHN renal) was 1770 nM, the TGI (ACHN renal) was 6580 nM and the GI50 (BT-549 breast) was 987 nM. It also gave a TGI (BT-549 breast) of 1950 nM, a GI50 (CAKI-1 renal) of 713 nM and a TGI (CAKI-1 renal) of 3660 nM. It also gave a GI50 (CCRF-CEM leukemia) of 28.4 nM, a TGI (CCRF-CEM leukemia) of 5170 nM and a GI50 (COLO 205 colon) of 169 nM. It also gave a TGI (COLO 205 colon) of 541 nM, a GI50 (DU-145 prostate) of 1000 nM and a TGI (DU-145 prostate) of 4180 nM. The GI50 (EKVX NSCLC) was 1530 nM, the TGI (EKVX NSCLC) was 5540 nM and the GI50 (HCC-2998 colon) was 953 nM. It also gave a TGI (HCC-2998 colon) of 2650 nM, a GI50 (HCT-116 colon) of 247 nM and a TGI (HCT-116 colon) of 1500 nM. For the same compound, the GI50 (HCT-15 colon) was 1570 nM, the TGI (HCT-15 colon) was 6000 nM and the GI50 (HL-60(TB) leukemia) was 612 nM. The TGI (HL-60(TB) leukemia) was 1810 nM, the GI50 (HOP-62 NSCLC) was 564 nM and the TGI (HOP-62 NSCLC) was 2130 nM. It also gave a GI50 (HOP-92 NSCLC) of 181 nM, a TGI (HOP-92 NSCLC) of 1850 nM and a GI50 (HS 578T breast) of 450 nM. It also gave a TGI (HS 578T breast) of 1920 nM, a GI50 (HT29 colon) of 477 nM and a TGI (HT29 colon) of 1950 nM. The GI50 (IGROV1 ovarian) was 955 nM, the TGI (IGROV1 ovarian) was 3980 nM and the GI50 (K-562 leukemia) was 130 nM. It also gave a TGI (K-562 leukemia) of 2420 nM, a GI50 (KM12 colon) of 76.5 nM and a TGI (KM12 colon) of 918 nM. For the same compound, the GI50 (LOX IMVI melanoma) was 548 nM, the TGI (LOX IMVI melanoma) was 1200 nM and the GI50 (M14 melanoma) was 1010 nM. For the same compound, the TGI (M14 melanoma) was 3430 nM, the GI50 (MALME-3M melanoma) was 672 nM and the TGI (MALME-3M melanoma) was 1620 nM. It also gave a GI50 (MCF7 breast) of 154 nM, a TGI (MCF7 breast) of 1030 nM and a GI50 (MDA-MB-231 breast) of 463 nM. The TGI (MDA-MB-231 breast) was 1900 nM, the GI50 (MDA-MB-435) was 746 nM and the TGI (MDA-MB-435) was 4510 nM. The GI50 (MOLT-4 leukemia) was 226 nM, the TGI (MOLT-4 leukemia) was 3420 nM and the GI50 (NCI-H226 lung) was 483 nM. For the same compound, the TGI (NCI-H226 lung) was 3050 nM, the GI50 (NCI-H23 lung) was 764 nM and the TGI (NCI-H23 lung) was 1830 nM. For the same compound, the GI50 (NCI-H460 lung) was 406 nM, the TGI (NCI-H460 lung) was 1180 nM and the GI50 (NCI-H522 lung) was 652 nM. The TGI (NCI-H522 lung) was 1440 nM, the GI50 (NCI/ADR-RES ovarian) was 9960 nM and the TGI (NCI/ADR-RES ovarian) was 47700 nM. It also gave a GI50 (OVCAR-3 ovarian) of 844 nM, a TGI (OVCAR-3 ovarian) of 2950 nM and a GI50 (OVCAR-4 ovarian) of 743 nM. For the same compound, the TGI (OVCAR-4 ovarian) was 2390 nM, the GI50 (OVCAR-5 ovarian) was 1330 nM and the TGI (OVCAR-5 ovarian) was 5380 nM. It also gave a GI50 (OVCAR-8 ovarian) of 672 nM, a TGI (OVCAR-8 ovarian) of 2840 nM and a GI50 (PC-3 prostate) of 664 nM. It also gave a TGI (PC-3 prostate) of 3470 nM, a GI50 (RPMI-8226 leukemia) of 1150 nM and a TGI (RPMI-8226 leukemia) of 2900 nM. For the same compound, the GI50 (RXF 393 renal) was 683 nM, the TGI (RXF 393 renal) was 1410 nM and the GI50 (SF-268 CNS) was 644 nM. It also gave a TGI (SF-268 CNS) of 1470 nM, a GI50 (SF-295 CNS) of 1150 nM and a TGI (SF-295 CNS) of 7230 nM. The GI50 (SF-539 CNS) was 205 nM, the TGI (SF-539 CNS) was 862 nM and the GI50 (SK-MEL-2 melanoma) was 1110 nM. For the same compound, the TGI (SK-MEL-2 melanoma) was 3050 nM, the GI50 (SK-MEL-28 melanoma) was 5740 nM and the TGI (SK-MEL-28 melanoma) was 12000 nM. For the same compound, the GI50 (SK-MEL-5 melanoma) was 6000 nM, the TGI (SK-MEL-5 melanoma) was 12500 nM and the GI50 (SK-OV-3 ovarian) was 2690 nM. It also gave a TGI (SK-OV-3 ovarian) of 9930 nM, a GI50 (SN12C renal) of 774 nM and a TGI (SN12C renal) of 2770 nM. For the same compound, the GI50 (SNB-19 CNS) was 950 nM, the TGI (SNB-19 CNS) was 4010 nM and the GI50 (SNB-75 CNS) was 185 nM. It also gave a TGI (SNB-75 CNS) of 982 nM, a GI50 (SR leukemia) of 60.1 nM and a TGI (SR leukemia) of 1620 nM. For the same compound, the GI50 (SW-620 colon) was 589 nM, the TGI (SW-620 colon) was 2240 nM and the GI50 (T-47D breast) was 1810 nM. For the same compound, the TGI (T-47D breast) was 9350 nM, the GI50 (TK-10 renal) was 1470 nM and the TGI (TK-10 renal) was 4360 nM. For the same compound, the GI50 (U251 CNS) was 734 nM, the TGI (U251 CNS) was 1890 nM and the GI50 (UACC-257 melanoma) was 4290 nM. It also gave a TGI (UACC-257 melanoma) of 11100 nM, a GI50 (UACC-62 melanoma) of 1770 nM and a TGI (UACC-62 melanoma) of 7870 nM. The GI50 (UO-31 renal) was 1870 nM and the TGI (UO-31 renal) was 8040 nM.

From PubChem BioAssay (NCI)
